Measured values: the NIST ThermoML archive (doi:10.1021/acs.jced.7b01034)

Tests used:
[1] = Molar enthalpy of transition or fusion; settings: Crystal; DSC
[2] = molar heat capacity at constant pressure; settings: 100 kPa, Crystal, DSC
[3] = Crystal; DTA

O=C(O)c1ccccc1 [benzoic acid]
Settings	Molar enthalpy of transition or fusion [kcal/mol]	Normal melting temperature [°C]
[1]	4.44	–
[3]	–	122.2

[2]
Settings	molar heat capacity at constant pressure [J/K/mol]
293.15 K	143.2
298.15 K	145.2
303.15 K	147.5
308.15 K	149.6
313.15 K	151.4
318.15 K	153
323.15 K	155.4
328.15 K	157.8
333.15 K	160
338.15 K	162.2
343.15 K	164.4
348.15 K	166.6
353.15 K	169.1
358.15 K	171.7
363.15 K	174.4
368.15 K	176.8
373.15 K	179.2
378.15 K	182
383.15 K	185.4
388.15 K	190.1

O=c1c(O)c(-c2ccccc2)oc2ccccc12 [3-hydroxyflavone]
Settings	Molar enthalpy of transition or fusion [kcal/mol]	Normal melting temperature [°C]
[1]	7.76	–
[3]	–	170.5

[2]
Settings	molar heat capacity at constant pressure [J/K/mol]
293.15 K	268.9
298.15 K	270.1
303.15 K	272.8
308.15 K	275.3
313.15 K	278.3
318.15 K	280.8
323.15 K	284.2
328.15 K	287.6
333.15 K	291.5
338.15 K	295.2
343.15 K	298.9
348.15 K	303.2
353.15 K	306.8
358.15 K	310.8
363.15 K	315
368.15 K	319.4
373.15 K	323.7
378.15 K	328
383.15 K	332
388.15 K	336.9
393.15 K	341.6
398.15 K	346.8
403.15 K	351.6
408.15 K	356.3
413.15 K	361.2
418.15 K	366
423.15 K	372.3
428.15 K	379
433.15 K	386

O=c1cc(-c2ccccc2)oc2ccc(O)cc12 [6-hydroxyflavone]
Settings	Molar enthalpy of transition or fusion [kcal/mol]	Normal melting temperature [°C]
[1]	7.75	–
[3]	–	236.2

[2]
Settings	molar heat capacity at constant pressure [J/K/mol]
293.15 K	244.4
298.15 K	250.3
303.15 K	255.3
308.15 K	260.4
313.15 K	265.7
318.15 K	271.1
323.15 K	277
328.15 K	282.6
333.15 K	287.5
338.15 K	292.7
343.15 K	297.3
348.15 K	302.4
353.15 K	307.1
358.15 K	312.4
363.15 K	317.2
368.15 K	321.9
373.15 K	326.7
378.15 K	330.6
383.15 K	335.1
388.15 K	339.8
393.15 K	344.4
398.15 K	348.9
403.15 K	353.2
408.15 K	358.3
413.15 K	362.3
418.15 K	365.8
423.15 K	370.3
428.15 K	373.7
433.15 K	376.9
438.15 K	380.8
443.15 K	383.5
448.15 K	385.7
453.15 K	388.4
458.15 K	391.5
463.15 K	394.2
468.15 K	397.1
473.15 K	399.2
478.15 K	402
483.15 K	404.1
488.15 K	406.1
493.15 K	408.4
498.15 K	412

O=c1cc(-c2ccccc2)oc2cccc(O)c12 [5-hydroxyflavone]
Settings	Molar enthalpy of transition or fusion [kcal/mol]	Normal melting temperature [°C]
[1]	6.49	–
[3]	–	158

[2]
Settings	molar heat capacity at constant pressure [J/K/mol]
293.15 K	274.6
298.15 K	279.8
303.15 K	285.1
308.15 K	289.4
313.15 K	297
318.15 K	302.8
323.15 K	307
328.15 K	311.2
333.15 K	312.9
338.15 K	315.9
343.15 K	319.5
348.15 K	323.8
353.15 K	328.8
358.15 K	334.4
363.15 K	338.5
368.15 K	344.8
373.15 K	347.9
378.15 K	350.8
383.15 K	355.6
388.15 K	360.1
393.15 K	365.3
398.15 K	369.6
403.15 K	373.8
408.15 K	377.7
413.15 K	382.3
418.15 K	387.6
423.15 K	395.5

O=c1cc(-c2ccccc2)oc2cc(O)ccc12 [7-hydroxyflavone]
Settings	Molar enthalpy of transition or fusion [kcal/mol]	Normal melting temperature [°C]
[1]	7.46	–
[3]	–	242.1

[2]
Settings	molar heat capacity at constant pressure [J/K/mol]
293.15 K	248.1
298.15 K	253.1
303.15 K	259.1
308.15 K	263.4
313.15 K	268.2
318.15 K	272
323.15 K	276.8
328.15 K	282.1
333.15 K	286
338.15 K	291.4
343.15 K	295.3
348.15 K	299.4
353.15 K	303.6
358.15 K	307.6
363.15 K	312.3
368.15 K	316.2
373.15 K	320.7
378.15 K	324.4
383.15 K	328.2
388.15 K	332.4
393.15 K	336
398.15 K	340.1
403.15 K	343.3
408.15 K	347
413.15 K	351.4
418.15 K	355.2
423.15 K	358.2
428.15 K	361.9
433.15 K	366.3
438.15 K	369.6
443.15 K	372.3
448.15 K	376.7
453.15 K	379.5
458.15 K	382.7
463.15 K	385.8
468.15 K	388.5
473.15 K	390.8
478.15 K	391.9
483.15 K	394
488.15 K	398.1
493.15 K	400.9
498.15 K	406.2

c1cc2ccc3cccc4ccc(c1)c2c34 [pyrene]
Settings	Molar enthalpy of transition or fusion [kcal/mol]	Normal melting temperature [°C]
[1]	4.15	–
[3]	–	150.8

[2]
Settings	molar heat capacity at constant pressure [J/K/mol]
293.15 K	221.9
298.15 K	225.8
303.15 K	230.2
308.15 K	234.3
313.15 K	238.7
318.15 K	243
323.15 K	247.5
328.15 K	252.6
333.15 K	258.1
338.15 K	263.6
343.15 K	268.9
348.15 K	274.1
353.15 K	279.8
358.15 K	285.4
363.15 K	291.4
368.15 K	298.2
373.15 K	304.6
378.15 K	310.7
383.15 K	317.5
388.15 K	325.7
393.15 K	333.7
398.15 K	341.5
403.15 K	349.9
408.15 K	359.2
413.15 K	372.2

Nc1ccc2oc(-c3ccccc3)cc(=O)c2c1 [6-aminoflavone]
Settings	Molar enthalpy of transition or fusion [kcal/mol]	Normal melting temperature [°C]
[1]	7.27	–
[3]	–	198.8

[2]
Settings	molar heat capacity at constant pressure [J/K/mol]
293.15 K	272.6
298.15 K	277.9
303.15 K	283.4
308.15 K	287.6
313.15 K	292.2
318.15 K	296.7
323.15 K	301.6
328.15 K	306.3
333.15 K	311.1
338.15 K	316.1
343.15 K	320.4
348.15 K	324.5
353.15 K	328.9
358.15 K	333.6
363.15 K	338.1
368.15 K	342.2
373.15 K	346.1
378.15 K	349.8
383.15 K	353.8
388.15 K	358.5
393.15 K	361.8
398.15 K	367.2
403.15 K	371
408.15 K	374.6
413.15 K	378.3
418.15 K	381.8
423.15 K	385.4
428.15 K	390.1
433.15 K	395.3
438.15 K	400.4
443.15 K	406.4
448.15 K	411.3
453.15 K	418.5
458.15 K	427.8

c1ccc2cc3ccccc3cc2c1 [anthracene]
Settings	Molar enthalpy of transition or fusion [kcal/mol]	Normal melting temperature [°C]
[1]	7.33	–
[3]	–	216.6

[2]
Settings	molar heat capacity at constant pressure [J/K/mol]
293.15 K	205.7
298.15 K	209.9
303.15 K	213.9
308.15 K	217.6
313.15 K	221.7
318.15 K	225.4
323.15 K	229.6
328.15 K	234.2
333.15 K	237.9
338.15 K	242.2
343.15 K	246.5
348.15 K	250.7
353.15 K	254.9
358.15 K	258.8
363.15 K	262.9
368.15 K	266.9
373.15 K	270.6
378.15 K	275.2
383.15 K	279.2
388.15 K	283.2
393.15 K	286.9
398.15 K	291.7
403.15 K	295.8
408.15 K	299.3
413.15 K	303.3
418.15 K	306.8
423.15 K	309.9
428.15 K	313.4
433.15 K	317.4
